Earlier results in patent publication US9457044B2, “Methods and compositions for wound healing” (CoDa Therapeutics, Inc., priority 2006, dated 2016).

B1: KGF: keratinocyte growth factor (protein, UniProt P21781 32-194, looked up)
Fibroblast growth factor 7: CNDMTPEQMATNVNCSSPERHTRSYDYMEGGDIRVRRLFCRTQWYLRIDKRGKVKGTQEMKNNYNIMEIRTVAVGIVAIKGVESEFYLAMNKEGKLYAKKECNEDCNFKELILENHYNTYASAKWTHNGGEMFVALNQKGIPVRGKKTKKEQKTAHFLPMAIT

Details: cited from earlier work

Molecule	effective dose when applied topically (U.S. Pat. No. 4,861,757) [ng/mm^2]	concentration effective for wound healing by topical application to epithelial tissue (about 50 μl, Sotozono et al. 1995)
PDGF	≥ 5	
B1		about 5 μg/ml
